In publication PMC5065625, “Structure-mechanism-based engineering of chemical regulators targeting distinct pathological factors in Alzheimer's disease” (Nature Communications, 2016):

Columns and labels:
[1] = Stability in solution (UV–vis, ESI–MS), metal-free; type: physicochemical; details: for k, metal-free (rate of decay of the absorbance peak) / t1/2, metal-free / Stability in solution: 50 μM; for Stability in solution: metal-free, HEPES pH 7.4, 37 °C, 5 h
Protocol: The stability of 1–4 (50 μM) in the absence and presence of CuCl2 (25 μM) was monitored every 10 min using UV–vis for 5 h in buffer ([…], pH 7.4, […]; 1% DMSO) at 37 °C. The resulting spectra were corrected for baseline shifts at 800 nm and the half-life and rate of decay of the absorbance at 250, 385 and 400 nm for 4, [Cu(II)+1], and [Cu(II)+3], respectively, was calculated using the first-order exponential decay function as implemented in Origin 9.1 (OrginLab Corp., Northampton, MA, USA). Additionally, the species present were identified using ESI–MS. Samples containing 1–4 (50 μM) with or without CuCl2 (25 μM) were incubated in ddH2O (1% DMSO) at 37 °C for the selected time points before being freshly frozen using liquid nitrogen and stored at −80 °C until they were thawed immediately before measurement.

[2] = molecular target: T1, Cu(II)–Aβ40/Aβ42 (Homo sapiens, UniProt P05067); test: nESI-MS / IM–MS interaction studies with Cu(II); type: binding; details: Aβ40 18 μM, copper(II) acetate 40 μM, compound 120 μM, pH 7.5, 37 °C, 30 min
T1 construct: Aβ40 or Aβ42 was dissolved in ammonium hydroxide
Protocol: All IM–MS experiments were carried out on a Synapt G2 (Waters, Milford, MA)[27][28][29][58]. Samples were ionized using a nano-electrospray source operated in positive ion mode. MS instrumentation was operated at a backing pressure of 2.7 mbar and sample cone voltage of 40 V. The m/z scale was calibrated using 20 mg ml^−1 aqueous cesium iodide. For peptide-metal ligation studies, the aliquots of Aβ peptides (final concentration 18 μM) were sonicated for 5 s before pre-incubation with or without a source of Cu(II) (copper(II) acetate) at 37 °C for 10 min. […] Solution conditions were 100 mM ammonium acetate (pH 7.5) with 1% v/v DMSO. Covalent binding studies with 4 were performed by incubating aliquots of Aβ with the ligand at a ratio of 1:0, 1:5 and 1:25 in water for either 24 h or a week at 25 °C. After incubation the samples were lyophilized for storage until analysis. Immediately before analysis samples were reconstituted to 50 μM peptide concentration in 1,1,1,3,3,3-hexafluoro-2-propanol, sonicated and diluted further to 25 μM for data acquisition. Accurate mass values for ligand-bound complexes were calculated using the monoisotopic peak difference between apo and ligated states with errors reported as a function of two times the s.d. collision cross section (CCS) measurements were externally calibrated using a database of known values in helium, using values for proteins that bracket the likely CCS and ion mobility values of the unknown ions[58][59]. CCS values are the average of six replicates with errors reported as the least square product. This least square analysis combines inherent calibrant error from drift tube measurements (3%)[59]. calibration curve error, and two times the replicate s.d. error. All other conditions are consistent with previously published methods.
Aβ (100 μM) was incubated with 4 (500 μM) in 100 mM ammonium acetate, pH 7.5, without and with the addition of CuCl2 (100 μM) for 1 h at 37 °C without agitation. Before injection into the mass spectrometer, the resulting Aβ was diluted by 10-fold. ESI–MS analysis was performed using a Synapt G2-Si quadrupole time-of-flight mass spectrometer (Waters, Manchester, UK) equipped with electrospray ionization source. The capillary voltage, sampling cone voltage, and source temperature were set to 2.8 kV, 70 V, and 60 °C, respectively. The backing pressure was adjusted to 3.2 mbar.

[3] = HEPES pH 7.4, 150 μM NaCl, 37 °C
[4] = HEPES pH 7.4, 150 μM NaCl, 37 °C, absorbance peak decay

T1 sequence (P05067 672-711): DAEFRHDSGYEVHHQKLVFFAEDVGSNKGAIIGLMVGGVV

| SMILES | k, metal-free (rate of decay of the absorbance peak) [1, 3] | t1/2, metal-free [1, 4] | Stability in solution [1] | Interaction with Aβ in the presence of Cu(II) [2] | half-life at 50 μM ([1]; HEPES buffer, pH 7.4, 50 μM, HEPES pH 7.4, 150 μM NaCl, 37 °C, absorbance peak decay, read-out: t1/2, metal-free) [min] |
| --- | --- | --- | --- | --- | --- |
| CN(C)c1ccc(NCc2ccc3ccccc3n2)cc1 [compound 3, N^1,N^1-dimethyl-N^4-(quinolin-2-ylmethyl)benzene-1,4-diamine] | too slow to accurately measure the rate | No noticeable spectral changes were observed over 5 h | changes in its Ultraviolet-Visible (UV-vis) spectra after 5 h of incubation occurring at a very slow rate | Cu–ligand-dependent signals corresponding to a mass 89 Da lighter than the apo Aβ40/Aβ42 | – |
| Nc1ccc(NCc2ccccn2)cc1 [compound 1, N^1-(pyridin-2-ylmethyl)benzene-1,4-diamine] | too slow to accurately measure the rate | No noticeable spectral changes were observed over 5 h | stable over 5 h | Cu–ligand-dependent signals corresponding to a mass 89 Da lighter than the apo Aβ40/Aβ42 | – |
| CN(C)c1ccc(NCc2ccc[nH]2)cc1 [compound 4, N^1-((1H-pyrrol-2-yl)methyl)-N^4,N^4-dimethylbenzene-1,4-diamine] | 0.016 ± 0.004 min⁻¹ | ~40 min | unstable | not shown to bind to Aβ40 | 43 ± 5 |
| COc1cc(NCc2ccccn2)cc(OC)c1 [compound 2, 3,5-dimethoxy-N-(pyridin-2-ylmethyl)aniline] | too slow to accurately measure the rate | No noticeable spectral changes were observed over 5 h | stable over 5 h | stable ternary complexes | – |
